Measurements: US20060154860A1, “Manipulating stem-progenitor cell trafficking to injured tissue and/or tumors by altering HIF-1 and/or SDF-1 activity” (priority 2004, published 2006)
“Also recorded” adds a separate entry of the source.

What was measured:
[1] = tested on: SDF1 promoter; assay: SDF1 promoter luciferase reporter assay (pGL3b.SDF1.full) in HMEC-1; type: cell-based, human; conditions: 0.1 mM cobalt chloride, 12 hours, HMEC-1 transfected with pGL3b.SDF1.full
From the text: The 1.4 kb 5′ SDF1 promoter region was cloned into the luciferase reporter vector pGL3-Basic (Promega) generating pGL.SDF1.full. 5′ deletion constructs were generated from pGL.SDF1.full using unique internal restriction sites SmaI/SacI, and XhoI. HBS-only contructs (HBS1, HBS2, or both) were generated by PCR and cloned into pGL3-Promoter (Promega). HBS1 was mutated using the mega-primer method (primers listed below) (Kammann et al., “Rapid Insertional Mutagenesis of DNA by Polymerase Chain Reaction (PCR),” Nucleic Acids Res. 17:5404 (1989), which is hereby incorporated by reference in its entirety). All constructs were sequenced to confirm their identity. Reporter plasmids were co-transfected with a constitutively expressed Renilla luciferase construct (pHRL-TK, Promega) into HMECs using the Genejammer reagent (Stratagene). 48 hours after transfection, cells were incubated in hypoxia or normoxia with and without 0.1 mM cobalt chloride (CoCl2) for 12 hours. Luciferase activity was determined using the Dual Luciferase System (Promega) and data were normalized to Renilla luciferase expression from at least four independent experiments. Co-transfection experiments using plasmids for oxygen […] HIF-1α (HIF-1.ΔODD) and the HIF-1α dominant negative (HIF-1.DN) were compared to control transfections using the appropriate empty vector (pcDNA3.1 and pCEP4, respectively) for each construct. […]

[2] = target: CXCR4 on human endothelial progenitor cells (EPCs) (human) (UniProt P61073); assay: cell-based or functional assay
[3] = tested on: CXCR4+ EPCs / HUVEC monolayers; assay: Adhesion assay of DiI-labeled CXCR4+ EPCs to HUVEC monolayers; type: cell-based, human; conditions: monolayers pre-coated for 20 minutes with recombinant SDF-1
Experimental: Confluent HUVEC monolayers were subjected to normoxic or hypoxic culture for 6 hours. Human SDF-1αβ/PBSF (100 ng/ml, Sigma) was added where indicated. DiI-labeled EPCs (5×10^4) in EBM/0.5% FBS were added to each preconditioned monolayer and pre-adhesion fluorescence was measured using a Cytofluor 2320 (Millipore). After 3 hours, nonadherent cells were washed away, and post-adhesion fluorescence was measured. The percentage of adherent
cells was calculated using the following formula: [formula] Results are representative of three independent experiments.
HIF-1α siRNA (Berra et al, “HIF Prolyl-hydroxylase 2 is the Key Oxygen Sensor Setting Low Steady-state Levels of HIF-1α in Normoxia,” Embo. J. 22:4082-4090 (2003), which is hereby incorporated by reference in its entirety) (synthesized by Qiagen) was transfected into HUVECs using RNAiFect (Qiagen) in parallel with Lamin A/C and FITC-labeled control siRNAs according to the manufacturer=3 s protocol. Cells were treated with normoxic or hypoxic conditions starting 24 hours following transfection. Gene expression and adhesion assays were performed at 48 hours.

[4] = tested on: EPCs; assay: Migration assay (modified transwell) of EPCs; type: cell-based, human; conditions: 6 hour migration period
Experimental: Migration was studied using a modified transwell assay. EPCs (5×10^4) were seeded onto ChemoTx filters (5.7 mm, 8 μm pore, Neuro Probe) in EBM/0.5% FBS. […] Following the 6 hour migration period, nonmigrating cells were completely wiped from the top surface of the membrane. Migrating cells adherent to the undersurface of the filters were quantified using DAPI staining (Vector) with Kodak 1D software. Results are indicative of four independent experiments.

Sequence of UniProt P61073 (P61073 whole entry): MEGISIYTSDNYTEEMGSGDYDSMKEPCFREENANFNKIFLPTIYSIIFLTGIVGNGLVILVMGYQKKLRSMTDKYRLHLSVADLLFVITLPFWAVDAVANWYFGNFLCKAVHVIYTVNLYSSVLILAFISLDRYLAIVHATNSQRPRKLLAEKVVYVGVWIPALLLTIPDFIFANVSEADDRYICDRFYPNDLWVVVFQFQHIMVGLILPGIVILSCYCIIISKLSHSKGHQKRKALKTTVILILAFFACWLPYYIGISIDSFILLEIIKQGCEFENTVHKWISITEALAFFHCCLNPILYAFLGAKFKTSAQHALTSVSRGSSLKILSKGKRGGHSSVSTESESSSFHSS

Compound: [Cl][Co][Cl] [cobalt chloride]
- SDF1-specific luciferase expression [1]: four-fold

Compound: neutralizing CXCR4 antibody (Clone 44716, R&D Systems)
- EPC migration toward hypoxia-conditioned media after preincubating EPCs with neutralizing CXCR4 antibodies (HM+ab) [2]: 175 cells/hpf

Compound: recombinant SDF-1: Recombinant human SDF-1αβ/PBSF (Sigma), chemokine
- adhesion of CXCR4+ EPCs to normoxic HUVEC monolayers [3]: Increased adhesion; also recorded: adhered more EPCs
- EPC migration, effect in words [4]: EPC migration increased
